# Values joined by “and” are separate entries in the source; they are usually repeats but may differ in a detail not shown here. Equal values may be shown once.
# Legend:
# Assay type in all cases: in vivo
# [1] = system: adult human subjects with moderate to severe Hidradenitis Suppurativa (HS); test: Phase 2 randomized, double-blind, placebo-controlled study of upadacitinib, efficacy incl. post-hoc analysis through week 40; conditions: for subjects achieving HiSCR at Week 12, n (%): upadacitinib 30 mg QD oral, N=47; for subjects achieving Pain NRS30 at Week 12 among subjects with Baseline NRS ≥ 3, n (%): upadacitinib 30 mg QD, N=33
# From the text: (§1) This study was a Phase 2, multicenter, randomized, double-blind, parallel-group, placebo-controlled study to evaluate the efficacy and safety of upadacitinib in adult human subjects with moderate to severe Hidradenitis Suppurativa (HS).
# (§2) The duration of the study was 57 weeks, including an approximately 35-day screening period followed by a 48-week double-blinded treatment period and a 30-day follow-up visit after the last dose of study drug. Subjects were randomized in a 2:1 ratio to 1 of the 2 arms as shown below: • Upadacitinib 30 mg once daily (QD) (N=40): Daily oral doses of upadacitinib 30 mg from the Baseline visit through Period 1 and Period 2. • Placebo (N=20): Placebo for upadacitinib from the Baseline visit up to the Week 12 visit (Period 1). At Week 12, subjects were switched to blinded upadacitinib 15 mg QD through Period 2.
# The primary objective of this study was to assess the efficacy and safety of upadacitinib 30 mg QD in adult subjects with moderate to severe HS. The primary efficacy objective was assessed based on the achievement of HiSCR after 12 weeks treatment.
# The primary endpoint was Hidradenitis Suppurativa Clinical Response (HiSCR) at Week 12, where HiSCR is defined as at least 50% reduction in the total abscess and inflammatory nodule (AN) count with no increase in abscess count and no increase in draining fistula count relative to Baseline.
# The secondary endpoint was Pain Numerical Rating Scale (NRS30) at Week 12: the achievement of at least 30% reduction and at least 1 unit reduction from Baseline in NRS30 in Patient's Global Assessment of Skin Pain (PGA Skin Pain) at Week 12, among subjects with Baseline NRS≥3.
# The following additional efficacy endpoints were evaluated: • 1. Experience of flare, defined as an increase in AN count of at least 25% with a minimum increase of 2 relative to Baseline • 2. Change from Baseline in Dermatology Life Quality Index (DLQI) • 3. Change from baseline in Hidradenitis Suppurativa Symptom Assessment (HSSA) • 4. Change from baseline in HS-related swelling, assessed based on the HSSA • 5. Change from baseline in HS-related odor, assessed based on the HSSA • 6. Change from baseline in HS-related worst drainage, assessed based on the HSSA
# For the primary and secondary endpoints, comparisons of upadacitinib vs. placebo were made with 3 different analysis strategies, as summarized in Table 1 below:
# For the additional endpoints, comparisons were made for upadacitinib vs. historical reference value of placebo, and upadacitinib vs. in-trial placebo subjects.
# For categorical variables, the primary approach to handle missing data was Non-Responder Imputation [NRI] incorporating Multiple Imputation [MI]. For continuous variables, missing data was handled by Mixed-effect Model Repeat Measurement (MMRM). Missing data for long-term efficacy in Period 2 were handled based on the observed case (OC).
# A post-hoc efficacy assessment through week 40 was performed in the study of Example 1. The analysis included the proportion of patients achieving ≥75% and ≥90% reduction from baseline in AN count with no increase in abscess or draining fistula count (HiSCR 75 and HiSCR 90, respectively) and the proportion of patients achieving ≥55% reduction in International HS Severity Score System endpoint (IHS4-55), which dynamically assesses inflammatory nodules, abscesses, and draining tunnels.
# [2] = system: adult human subjects with moderate to severe Hidradenitis Suppurativa (HS); test: Phase 2 study of upadacitinib in HS, safety (TEAEs, discontinuation due to adverse event)
# From the text: as §1, §2
# Treatment-emergent adverse events (TEAEs), adverse events of interests (AESIs), and potentially clinically important (PCI) laboratory changes were monitored in Period 1.
# [3] = system: adult human subjects with moderate to severe Hidradenitis Suppurativa (HS); test: Phase 2 randomized, double-blind, placebo-controlled study of upadacitinib, efficacy incl. post-hoc analysis through week 40; conditions: UPA 30 mg QD; N=47; flare = AN count increase ≥25% with minimum increase of 2
# [4] = UPA 30 mg, analysis vs historical reference value of PBO
# [5] = UPA 30 mg, analysis vs in-trial PBO
# [6] = Week 12, UPA 30 mg, Observed Case, n=39
# [7] = Week 40, PBO/UPA 15 mg (switched at week 12), NRI-C, n=19
# [8] = Week 40, UPA 30 mg/UPA 30 mg, NRI-C, n=47
# [9] = Week 40, UPA 30 mg/UPA 30 mg, Observed Case, n=29
compound,measurement,setting,value
CC[C@@H]1CN(C(=O)NCC(F)(F)F)C[C@@H]1c1cnc2cnc3[nH]ccc3n12 [upadacitinib],"HiSCR at Week 12, % (N), stratum TNF-Naïve","[1]; UPA 30 mg, NRI-C, N=35, listed as UPA",37.1% (N = 35)
same,"Change in DLQI at Week 12, LS Mean (SE)",[1]; [4],−2.4 (1.05)
same,"Change in HSSA odor at Week 12, LS Mean (SE)",[1]; [4],-1.2
same,"Change in HSSA swelling at Week 12, LS Mean (SE)",[1]; [4],-0.931
same,"Change in HSSA total symptom at Week 12, LS Mean (SE)",[1]; [4],-0.969
same,"Change in HSSA worst drainage at Week 12, LS Mean (SE)",[1]; [4],−1.131 (0.31)
same,"Change in DLQI at Week 12, LS Mean (SE)",[1]; [5],-2.4
same,"Change in HSSA odor at Week 12, LS Mean (SE)",[1]; [5],−1.171 (0.36)
same,"Change in HSSA swelling at Week 12, LS Mean (SE)",[1]; [5],−0.922 (0.34)
same,"Change in HSSA total symptom at Week 12, LS Mean (SE)",[1]; [5],−1.034 (0.27)
same,"Change in HSSA worst drainage at Week 12, LS Mean (SE)",[1]; [5],−1.259 (0.30)
same,"Patients achieving HiSCR 90, n (%)","[1]; Week 12, UPA 30 mg, NRI-C, n=47, listed as UPA",8.5% and 4 (8.5)^‡ %
same,"Patients achieving HiSCR 75, n (%)",[1]; [6],10 (25.6) %
same,"Patients achieving HiSCR 90, n (%)",[1]; [6],4 (10.3) %
same,"Patients achieving HiSCR, n (%)",[1]; [6],18 (46.2) %
same,"Patients achieving IHS4-55, n (%)",[1]; [6],19 (48.7) %
same,"Patients achieving HiSCR 75, n (%)",[1]; [7],7 (36.8) %
same,"Patients achieving HiSCR 90, n (%)",[1]; [7],4 (21.1) %
same,"Patients achieving HiSCR, n (%)",[1]; [7],10 (52.6) %
same,"Patients achieving IHS4-55, n (%)",[1]; [7],12 (63.2) %
same,"Patients achieving IHS4-55, n (%)","[1]; Week 40, PBO/UPA 15 mg (switched at week 12), Observed Case, n=14",85.7%
same,"Patients achieving IHS4-55, n (%)","[1]; Week 40, PBO/UPA 15 mg (switched at week 12), Observed Case, n=14, listed as UPA",12 (85.7) %
same,"Patients achieving HiSCR 75, n (%)",[1]; [8],18 (38.3) %
same,"Patients achieving HiSCR 90, n (%)",[1]; [8],9 (19.1) %
same,"Patients achieving HiSCR, n (%)",[1]; [8],22 (46.8) %
same,"Patients achieving IHS4-55, n (%)",[1]; [8],21 (44.7) %
same,"Patients achieving HiSCR 75, n (%)",[1]; [9],18 (62.1) %
same,"Patients achieving IHS4-55, n (%)",[1]; [9],72.4%
same,"Patients achieving IHS4-55, n (%)","[1]; Week 40, UPA 30 mg/UPA 30 mg, Observed Case, n=29, listed as UPA",21 (72.4) %
same,"subjects achieving HiSCR at Week 12, n (%)",[1]; NRI-C,38.3%
same,"subjects achieving HiSCR at Week 12, n (%)","[1]; NRI-C, listed as Upadacitinib",18 (38.3) %
same,"subjects achieving Pain NRS30 at Week 12 among subjects with Baseline NRS ≥ 3, n (%)",[1]; NRI-C,36.4%
same,"subjects achieving Pain NRS30 at Week 12 among subjects with Baseline NRS ≥ 3, n (%)","[1]; NRI-C, listed as UPA",12 (36.4%)
same,"subjects achieving Pain NRS30 at Week 12 among subjects with Baseline NRS ≥ 3, n (%)","[1]; NRI-C, listed as Upadacitinib",12 (36.4) %
same,most frequently reported TEAE (≥5%),"[2]; Period 1, upadacitinib 30 mg QD group","headache, dizziness, and urinary tract infection"
same,"Discontinued Study Drug during Period 2 (primary reason): Adverse event, n (%)","[2]; Placebo/UPA 15 mg, N=19",0
same,"Discontinued Study Drug during Period 1: Adverse Event, n (%)","[2]; UPA 30 mg, N=47",(2.1) %
same,"Discontinued Study Drug during Period 2 (primary reason): Adverse event, n (%)","[2]; UPA 30 mg, N=47",0
same,"Flare during Period 1, n (%)",[3],6 (12.8%)

# Source: patent US20240122923A1, “METHODS OF TREATING HIDRADENITIS SUPPURATIVA” (AbbVie Inc., priority 2022, published 2024)
